Experimental data: patent publication US9707417B2, “Use of benzotropolone derivatives as UV absorbers and antioxidants and their use in sunscreens and/or cosmetic compositions” (BASF SE, priority 2008, dated 2017)
“Also recorded” adds a separate entry of the source.

Assays:
[1] = UV shielding properties (UV spectra in ethanol); type: physicochemical; design: Absorption maximum 1 λmax / Absorption maximum 2 λmax: unit not given here; settings: for Absorption maximum 1 A^1%1 cm / Absorption maximum 1 λmax / Absorption maximum 2 A^1%1 cm / Absorption maximum 2 λmax: UV spectra in ethanol
Text: The UV shielding properties of the benzotropolone derivatives were investigated by measuring their UV spectra in ethanol.
In the following table the investigated absorption maxima (λmax) together with the corresponding A^1%1cm values are listed.

[2] = Measurement of photostability (irradiation of highly diluted solution of the UV-filter, analysis by UV-spectroscopy); type: physicochemical; settings: for Half time: photostability, diluted solution in ethanol, first order kinetic model, half-life under conditions of COLIPA standard sun irradiation
Experimental: The method used for assessment of photostability is based on the irradiation of a highly diluted solution of the UV-filter.
The analysis after certain doses of irradiation is performed by UV-spectroscopy. The concentration of the UV-absorber in ethanol is adjusted to values between 1·10^−5 and 1·10^−6 mol/l, such that the absorbance of the solution in cuvette of 1 cm optical path length is ≦than 0.2. The mutual protection of filter molecules can be excluded under such conditions.
Prior to irradiation of a sample the UVB-intensity at the sample position is measured with a UV-radiometer (RM-12, Dr. Gröbel Electronic GmbH).
This radiometer is calibrated by comparison with a measurement of the spectral output of the metal halide lamp (including light guide and cut-off filter) using a wavelength-resolved radiometer (Gamma C11).
Therefore the relationship of the reading of the RM-12 radiometer and the corresponding spectral output of the lamp is known, and one is able to determine the wavelength-resolved intensities by measuring the UVB-intensity. By changing the distance between the end of the light guide and the cuvette, the UVB-intensity can be varied in the range of 100 μW/cm^2 and 4500 μW/cm^2.
For sample irradiation the highest possible intensity was used (4.5 mW/cm^2 UVB-intensity measured with the Macam 103 radiometer).
The irradiation time is varied from 0 to 180 min.
The dose the sample has received after 180 min corresponds to 60 MED.
During irradiation the sample was stirred. After certain intervals of irradiation, the samples were analyzed in a UV-spectrometer (Perkin Elmer, Lambda 16).
From the absorbance values at each dose of irradiation the concentration may be calculated using Lambert-Beer's law.
In order to get the half-life of the substance, a first order kinetic model was fitted to the experimental data. Since the UV-spectrum of the lamp and the UV-spectrum of the COLIPA standard sun are known, one can calculate the respective half-life of the UV-absorber under conditions of COLIPA standard sun irradiation [Bernd Herzog, Stefan Müller, Myriam Sohn, Uli Osterwalder, “New Insight and Prediction of Photostability of Sunscreens”, SÖFW Journal 133, 26-36 (2007)].

Solubility in water = type: physicochemical
[3] = DPPH assay (antioxidative / antiradical activity); type: biochemical; settings: comparison with vitamin C, vitamin E, resveratrol
Text: For tests of antioxidative activity, the DPPH assay is used. DPPH (2,2-Diphenyl-1-picryl-hydrazyl) is a stable radical, which absorbs in its radical form at 515 nm. Upon reduction by an antioxidant (AH), the absorption disappears: DPPH.+AH→DPPH—H+A. (1)
The rate of reaction (1) can be rather different for different antioxidants.
In the test, the ratio of the molar concentrations of the antioxidant and DPPH is varied (this ratio is named “EC”=efficient concentration), and the concentration of DPPH in the equilibrium state is measured for each ratio. […] The smaller the EC50 value, the more efficient is the antioxidant. Thus, the inverse, 1/EC50, can be used to quantify the antiradical power.
Solutions of DPPH and the antioxidants in ethanol are prepared separately and added together for starting the reaction (0.5 cm^3 of a 250 μM antioxidant solution is added to 2.5 cm^3 of a 100 μM DPPH solution). The absorption is measured using a Perkin Elmer Lambda 20 spectrophotometer.

| Compound | Absorption maximum 1 A^1%1 cm [1] | Absorption maximum 1 λmax [1] | Absorption maximum 2 A^1%1 cm [1] | Absorption maximum 2 λmax [1] | photostability (in words) [2] | Half time [2] | Solubility in water (Solubility in water) | shielding properties in the UV region (in words) [1] | antioxidant/radical scavenging power compared to state-of-the-art antioxidants (in words) [3] |
| --- | --- | --- | --- | --- | --- | --- | --- | --- | --- |
| COC(=O)c1cc(O)c(=O)c2c(O)c(O)cc(CCO)c2c1 [Compound B-52] | 437 | 280 | 176 | 399 |  |  |  |  |  |
| Cc1cc2cc(CO)cc(O)c(=O)c2c(O)c1O [Compound B-61] | 711 | 295 |  |  |  |  |  |  |  |
| COC(=O)c1cc(O)c(=O)c2c(O)c(O)c(C)cc2c1 [Compound B-6] | 997 | 280 | 447 | 396 |  |  |  | high shielding properties in the UV region; also recorded: UV-C/UV-B shielding properties as well as UV-A shielding properties |  |
| Cc1cc2cc(C(=O)NCCCCP(=O)(O)O)cc(O)c(=O)c2c(O)c1O [Compound B-49] | 601 | 278 | 270 | 381 |  |  |  |  |  |
| CCCCCCCCCCCCOc1cc2cc(C(=O)OCCCCCCCC)cc(O)c(=O)c2c(O)c1O [Compound B-33] | 575 | 310 | 210 | 403 |  |  |  |  |  |
| COC(=O)c1cc(O)c(=O)c2c(OC)c(O)c(OCCO)cc2c1 [Compound B-45] | 804 | 306 | 302 | 401 |  |  |  |  |  |
| COC(=O)c1cc(O)c(=O)c2c(O)c(O)c(O[C@@H]3O[C@H](CO)[C@@H](O)[C@H](O)[C@H]3O)cc2c1 [Compound B-7] | 593 | 287 | 246 | 399 |  |  |  |  |  |
| O=c1c(O)cccc2cc(O)c(O)c(O)c12 [Compound B-1] | 935 | 281 | 1179 | 305 | high photostability | 31.5 h |  | high shielding properties in the UV region; also recorded: high absorption in the UV-C and UV-B region |  |
| COc1cc2cc(CO)cc(O)c(=O)c2c(O)c1O [Compound B-50] | 1027 | 305 |  |  |  |  |  |  |  |
| CCCCc1ccc2c(CCCC)c(O)c(O)c(O)c2c(=O)c1O [Compound B-55] | 788 | 311 |  |  |  |  |  |  |  |
| CCCCCCCCCCCCOC(=O)c1cc(O)c(=O)c2c(O)c(O)c(OCCCCCCCCCCCC)cc2c1 [Compound B-53] | 533 | 309 | 193 | 402 |  |  |  |  |  |
| COC(=O)c1cc(O)c(=O)c2c(O)c(O)ccc2c1 [Compound B-3] | 1007 | 277 | 516 | 395 | extraordinary high inherent photostability | 61.9 h |  | high shielding properties in the UV region; also recorded: UV-C/UV-B shielding properties as well as UV-A shielding properties |  |
| COC(=O)c1cc(O)c(=O)c2c(O)c(O)c(O[C@@H]3O[C@H](COC(C)=O)[C@H](OC(C)=O)[C@H](OC(C)=O)[C@H]3OC(C)=O)cc2c1 [Compound B-37] | 394 | 285 | 88 | 393 |  |  |  |  |  |
| CCc1ccc2c(CC)c(O)c(O)c(O)c2c(=O)c1O [Compound B-54] | 1142 | 309 |  |  |  |  |  |  |  |
| COC(=O)c1cc(O)c(=O)c2c(O)c(O)c(O[C@@H]3O[C@H](CO)[C@H](O)[C@H](O)[C@H]3O)cc2c1 [Compound B-16] | 550 | 288 | 204 | 397 |  |  |  |  |  |
| COC(=O)c1cc(O)c(=O)c2c(O)c(O)c(OC)cc2c1 [Compound B-5] | 1008 | 308 | 399 | 403 | extraordinary high inherent photostability | 116.5 h |  | high shielding properties in the UV region; also recorded: UV-C/UV-B shielding properties as well as UV-A shielding properties |  |

The next lines start with results.

| Absorption maximum 1 A^1%1 cm [1] | Absorption maximum 1 λmax [1] | Absorption maximum 2 A^1%1 cm [1] | Absorption maximum 2 λmax [1] | photostability (in words) [2] | Half time [2] | Solubility in water (Solubility in water) | Compound | shielding properties in the UV region (in words) [1] | antioxidant/radical scavenging power compared to state-of-the-art antioxidants (in words) [3] |
| --- | --- | --- | --- | --- | --- | --- | --- | --- | --- |
| 748 | 282 | 333 | 398 |  |  |  | CCCCCCCCOC(=O)c1cc(O)c(=O)c2c(O)c(O)c(C)cc2c1 [Compound B-34] |  |  |
| 799 | 281 | 383 | 406 |  |  |  | COC(=O)c1cc(O)c(=O)c2c(O)c(O)cc(CCC(=O)O)c2c1 [Compound B-62] |  |  |
| 497 | 300 | 174 | 388 |  |  |  | O=C(O)c1cc(O)c(=O)c2c(O)c(O)c(O[C@@H]3O[C@H](CO)[C@@H](O)[C@H](O)[C@H]3O)cc2c1 [Compound B-59] |  |  |
| 966 | 276 | 460 | 400 | high photostability | 33.6 h |  | O=C(O)c1cc(O)c(=O)c2c(O)c(O)ccc2c1 [Compound B-2] | high shielding properties in the UV region; also recorded: UV-C/UV-B shielding properties as well as UV-A shielding properties |  |
| 754 | 310 | 269 | 398 |  |  |  | COC(=O)c1cc(O)c(=O)c2c(O)c(O)c(OCCCCCC(=O)O)cc2c1 [Compound B-15] |  |  |
| 573 | 310 | 208 | 404 | high photostability | 51.3 h | 10.467% | COC(=O)c1cc(O)c(=O)c2c(O)c(O)c(OCCCO[C@@H]3O[C@H](CO)[C@@H](O)[C@H](O)[C@H]3O)cc2c1 [Compound B-13] |  | more effective in the DPPH assay than the state-of-the-art antioxidant resveratrol |
| 574 | 310 | 203 | 404 | high photostability | 16.6 h |  | CCCCCCCC/C=C\CCCCCCCCOc1cc2cc(C(=O)OC)cc(O)c(=O)c2c(O)c1O [Compound B-32] |  |  |
| 864 | 307 | 305 | 396 | high photostability | 16.6 h |  | COc1cc2cc(C(=O)O)cc(O)c(=O)c2c(O)c1O [Compound B-4] | high shielding properties in the UV region; also recorded: UV-C/UV-B shielding properties as well as UV-A shielding properties |  |
| 750 | 309 | 250 | 398 | high photostability | 22.8 h |  | CCOC(=O)CCCCCOc1cc2cc(C(=O)O)cc(O)c(=O)c2c(O)c1O [Compound B-36] |  |  |
| 611 | 310 | 231 | 404 |  |  |  | CCCCCCCCCCCCOc1cc2cc(C(=O)OC)cc(O)c(=O)c2c(O)c1O [Compound B-35] |  |  |
| 726 | 308 | 236 | 397 | high photostability | 40.1 h |  | O=C(O)CCCCCOc1cc2cc(C(=O)O)cc(O)c(=O)c2c(O)c1O [Compound B-19] |  |  |
| 1065 | 281 | 477 | 393 |  |  |  | Cc1cc2cc(C(=O)O)cc(O)c(=O)c2c(O)c1O [Compound B-31] |  |  |
